Measured values taken from BindingDB's records for doi:10.1021/jm00007a020 (Eastern Michigan University, 1995).
pKi: −log10 of the molar value. Square brackets hold non-standard residues; d marks the D form. Peptide text beside a SMILES is read from it. Ala(4-thiazolyl) = N[C@@H](Cc1cscn1)C(=O)O; 2Pal = N[C@@H](Cc1ccccn1)C(=O)O; 3Pal = N[C@@H](Cc1cccnc1)C(=O)O; 2Thi = N[C@@H](Cc1cccs1)C(=O)O

Assay: Inhibition of [3H]- DPDPE binding to delta opioid receptor of guinea pig brain

Row | Compound | pKi
1 | Cc1ccc(C[C@H](NC(=O)[C@H](C)NC(=O)[C@@H](N)Cc2ccc(O)cc2)C(=O)N[C@@H](CC(=O)O)C(=O)N[C@H](C(=O)N[C@H](C(=O)NCC(N)=O)C(C)C)C(C)C)cc1 [(S)-3-((S)-2-{(S)-2-[(S)-2-Amino-3-(4-hydroxy-phenyl)-propionylamino]-propionylamino}-3-p-tolyl-propionylamino)-N-{(S)-1-[(S)-1-(carbamoylmethyl-carbamoyl)-2-methyl-propylcarbamoyl]-2-methyl-propyl}-succinamic acid] | 5.58
2 | CC(C)[C@H](NC(=O)[C@H](CC(=O)O)NC(=O)[C@H](Cc1c(F)c(F)c(F)c(F)c1F)NC(=O)[C@H](C)NC(=O)[C@@H](N)Cc1ccc(O)cc1)C(=O)N[C@H](C(=O)NCC(N)=O)C(C)C [(S)-3-((S)-2-{(S)-2-[(S)-2-Amino-3-(4-hydroxy-phenyl)-propionylamino]-propionylamino}-3-pentafluorophenyl-propionylamino)-N-{(S)-1-[(S)-1-(carbamoylmethyl-carbamoyl)-2-methyl-propylcarbamoyl]-2-methyl-propyl}-succinamic acid] | 6.87
3 | Cc1c(C)c(C)c(C[C@H](NC(=O)[C@H](C)NC(=O)[C@@H](N)Cc2ccc(O)cc2)C(=O)N[C@@H](CC(=O)O)C(=O)N[C@H](C(=O)N[C@H](C(=O)NCC(N)=O)C(C)C)C(C)C)c(C)c1C [(S)-3-((S)-2-{(S)-2-[(S)-2-Amino-3-(4-hydroxy-phenyl)-propionylamino]-propionylamino}-3-pentamethylphenyl-propionylamino)-N-{(S)-1-[(S)-1-(carbamoylmethyl-carbamoyl)-2-methyl-propylcarbamoyl]-2-methyl-propyl}-succinamic acid] | 5.00
4 | CC(C)[C@H](NC(=O)[C@H](CC(=O)O)NC(=O)[C@H](Cc1ccccn1)NC(=O)[C@H](C)NC(=O)[C@@H](N)Cc1ccc(O)cc1)C(=O)N[C@H](C(=O)NCC(N)=O)C(C)C [(S)-3-((S)-2-{(S)-2-[(S)-2-Amino-3-(4-hydroxy-phenyl)-propionylamino]-propionylamino}-3-pyridin-2-yl-propionylamino)-N-{(S)-1-[(S)-1-(carbamoylmethyl-carbamoyl)-2-methyl-propylcarbamoyl]-2-methyl-propyl}-succinamic acid] (H-YA[2Pal]DVVG-NH2) | 7.21
5 | CC(C)[C@H](NC(=O)[C@H](CC(=O)O)NC(=O)[C@H](Cc1cccnc1)NC(=O)[C@H](C)NC(=O)[C@@H](N)Cc1ccc(O)cc1)C(=O)N[C@H](C(=O)NCC(N)=O)C(C)C [(S)-3-((S)-2-{(S)-2-[(S)-2-Amino-3-(4-hydroxy-phenyl)-propionylamino]-propionylamino}-3-pyridin-3-yl-propionylamino)-N-{(S)-1-[(S)-1-(carbamoylmethyl-carbamoyl)-2-methyl-propylcarbamoyl]-2-methyl-propyl}-succinamic acid] (H-YA[3Pal]DVVG-NH2) | 7.30
6 | CC(C)[C@H](NC(=O)[C@H](CC(=O)O)NC(=O)[C@H](Cc1cscn1)NC(=O)[C@H](C)NC(=O)[C@@H](N)Cc1ccc(O)cc1)C(=O)N[C@H](C(=O)NCC(N)=O)C(C)C [(S)-3-((S)-2-{(S)-2-[(S)-2-Amino-3-(4-hydroxy-phenyl)-propionylamino]-propionylamino}-3-thiazol-4-yl-propionylamino)-N-{(S)-1-[(S)-1-(carbamoylmethyl-carbamoyl)-2-methyl-propylcarbamoyl]-2-methyl-propyl}-succinamic acid] (H-YA[Ala(4-thiazolyl)]DVVG-NH2) | 7.40
7 | CC(C)[C@H](NC(=O)[C@H](CC(=O)O)NC(=O)[C@H](Cc1cccs1)NC(=O)[C@H](C)NC(=O)[C@@H](N)Cc1ccc(O)cc1)C(=O)N[C@H](C(=O)NCC(N)=O)C(C)C [(S)-3-((S)-2-{(S)-2-[(S)-2-Amino-3-(4-hydroxy-phenyl)-propionylamino]-propionylamino}-3-thiophen-2-yl-propionylamino)-N-{(S)-1-[(S)-1-(carbamoylmethyl-carbamoyl)-2-methyl-propylcarbamoyl]-2-methyl-propyl}-succinamic acid] (H-YA[2Thi]DVVG-NH2) | 8.85
8 | CC(C)[C@H](NC(=O)[C@H](CC(=O)O)NC(=O)[C@H](Cc1cccc(F)c1)NC(=O)[C@H](C)NC(=O)[C@@H](N)Cc1ccc(O)cc1)C(=O)N[C@H](C(=O)NCC(N)=O)C(C)C [(S)-3-[(S)-2-{(S)-2-[(S)-2-Amino-3-(4-hydroxy-phenyl)-propionylamino]-propionylamino}-3-(3-fluoro-phenyl)-propionylamino]-N-{(S)-1-[(S)-1-(carbamoylmethyl-carbamoyl)-2-methyl-propylcarbamoyl]-2-methyl-propyl}-succinamic acid] | 7.13
9 | CC(C)[C@H](NC(=O)[C@H](CC(=O)O)NC(=O)[C@H](Cc1ccc(F)cc1)NC(=O)[C@H](C)NC(=O)[C@@H](N)Cc1ccc(O)cc1)C(=O)N[C@H](C(=O)NCC(N)=O)C(C)C [(S)-3-[(S)-2-{(S)-2-[(S)-2-Amino-3-(4-hydroxy-phenyl)-propionylamino]-propionylamino}-3-(4-fluoro-phenyl)-propionylamino]-N-{(S)-1-[(S)-1-(carbamoylmethyl-carbamoyl)-2-methyl-propylcarbamoyl]-2-methyl-propyl}-succinamic acid] | 6.15
10 | H-YAHDVVG-NH2 [(S)-3-[(S)-2-{(S)-2-[(S)-2-Amino-3-(4-hydroxy-phenyl)-propionylamino]-propionylamino}-3-(3H-imidazol-4-yl)-propionylamino]-N-{(S)-1-[(S)-1-(carbamoylmethyl-carbamoyl)-2-methyl-propylcarbamoyl]-2-methyl-propyl}-succinamic acid] | 6.50
